From the OligoGym collection come the findings set out here.

These antisense oligonucleotides have a phosphorothioate backbone; sugars and methylation of C are not fully specified.
Also: test concentration or dose not given here.

One series concerns the target MAP3K5. Particulars: ASO.
Sequence CATCAACAAGCAAGTCGTTA showed a remaining target (mRNA or protein) (fraction of control) of 0.37.
As for CATCTCTCCGGGCCGGGCAG, the remaining target (mRNA or protein) (fraction of control) is 0.61.
Regarding CCAGAAGCTGCCCGGCGGCG, the remaining target (mRNA or protein) (fraction of control) amounted to 0.56.
On to CCGAATTCCCTTGACATCTC, for which the remaining target (mRNA or protein) (fraction of control) came to 0.62.
On the same count and under the same terms, the value for CCTCCGTGCTCATCTCTCCG was 0.09; that for CGCCTCCGTGCTCATCTCTC was 0.1; that for CGCTGCCCGGCGGCGGCTCG was 0.78.
Consider CGTCCGCCTCCGTGCTCATC, for which the remaining target (mRNA or protein) (fraction of control) stood at 0.12.
In turn, CGTGCTCATCTCTCCGGGCC had a remaining target (mRNA or protein) (fraction of control) of 0.12.
On to CTCATCTCTCCGGGCCGGGC, for which the remaining target (mRNA or protein) (fraction of control) turned out to be 0.3.
CTCCCAGTTCATAAAATGGG displayed a remaining target (mRNA or protein) (fraction of control) of 0.85.
Same read-out and setting: the value for CTCTGTCACCATTTTCATCA was 0.41; that for CTTGAGGTACCATGCTGGTG was 0.36.
On the same count and under the same terms, the value for GAACTATCTGATTGTCATGG was 0.83.
In the case of GAAGCCGGGTGAGCGGGAAG, the remaining target (mRNA or protein) (fraction of control) is 0.34.
Same read-out and setting: the value for GCACGATCACATGAATGTTA was 0.58; that for GCCGGCTGACAAGTCGGCTC was 0.43.
The sequence GGATGGTGCAGAAGCCCGAG showed a remaining target (mRNA or protein) (fraction of control) of 0.5.
Same read-out and setting: the value for GGCCTCGCTCTCGGCCACCA was 0.03; that for TCCGCCTCCGTGCTCATCTC was 0.12; that for TCCGTGCTCATCTCTCCGGG was 0.17.
Same read-out and setting: to TCTAATGTTCAGGATTATTT belongs no less than 1.
On the same count and under the same terms, to TCTCTCCGGGCCGGGCAGCA belongs no less than 1.
TCTGCTTTCAGTGTCCGTGA: the remaining target (mRNA or protein) (fraction of control) is 0.21.
Same read-out and setting: to TGAGCAACAGTCAAGTCTGT belongs 0.56; to TGCTCATCTCTCCGGGCCGG, 0.4; to TGTCAACCCCTTCATGAAGC, 0.19.
TTCGTCCGCCTCCGTGCTCA: the remaining target (mRNA or protein) (fraction of control) is 0.18.
Turning to TTCTAAAGTCTCTACCAGCT, the remaining target (mRNA or protein) (fraction of control) is 0.24.

A further series addresses PTPN6. Particulars: ASO.
In turn, AACCACCCACGGGACAGCAT yielded a remaining target (mRNA or protein) (fraction of control) of 0.47.
On the same count and under the same terms, the value for ACCCACGGGACAGCATCTCT was no less than 1.
Sequence ACGGGACAGCATCTCTCTGT came in with a remaining target (mRNA or protein) (fraction of control) of 0.65.
Regarding AGCAGGGTCTCTGCATCCAG, the remaining target (mRNA or protein) (fraction of control) was no less than 1.
On the same count and under the same terms, to AGGCTCTCACGCACAAGAAA belongs 0.66.
Consider ATGTGGCCATGGTACCACCT, for which the remaining target (mRNA or protein) (fraction of control) was no less than 1.
CAAACTCTCAAACTCCTCCC had a remaining target (mRNA or protein) (fraction of control) of 0.88.
Still for that read-out and setting: to CAGCATCTCTCTGTAGGGAG belongs 0.81; to CCACCCACGGGACAGCATCT, no less than 1.
Same read-out and setting: the value for CCACCTGAGGACAGCACCGC was 0.84; that for CCACGGGACAGCATCTCTCT was no less than 1; that for CCCTGACGGAGAGCGAGAAG was no less than 1.
Still for that read-out and setting: the value for CGACTCCTGGCCCTTCTGCG was 0.61.
CGCATTTGTTCCGGCCTTTC returned a remaining target (mRNA or protein) (fraction of control) of 0.69.
In turn, CGCTCACTTCCTCTTGAGGG gave a remaining target (mRNA or protein) (fraction of control) of 0.69.
In turn, CGTGAGGCTGTCGAAGGTCT yielded a remaining target (mRNA or protein) (fraction of control) of 0.9.
The same measure, in the same setting: to CTCTTGAGGGAACCCTTGCT belongs 0.49.
GAAACCACCCACGGGACAGC had a remaining target (mRNA or protein) (fraction of control) of no less than 1.
The same measure, in the same setting: the value for GACAGCATCTCTCTGTAGGG was 0.78; that for GACCCCATGGTCGGGCCAGC was no less than 1.
Turning to GAGGACAGCACCGCTCACTT, the remaining target (mRNA or protein) (fraction of control) stood at 0.88.
GATGAACTTGTACTGCGCCT: the remaining target (mRNA or protein) (fraction of control) stood at 0.84.
In turn, GATGTCAATGTCACAGTCCA registered a remaining target (mRNA or protein) (fraction of control) of 0.73.
With GCATCTCTCTGTAGGGAGGG, the remaining target (mRNA or protein) (fraction of control) came to 0.96.
On the same count and under the same terms, to GCCACGCCATCTGCCAGAAG belongs 0.7; to GCCAGGTGAGGAAGAACCGC, no less than 1; to GCCTGGGCCAGCCTTGGGCT, no less than 1.
Sequence GCGCCTGAGGCCTCCTCAAT returned a remaining target (mRNA or protein) (fraction of control) of 0.84.
For GGCCTGGCTGGGCTATATAC, the remaining target (mRNA or protein) (fraction of control) is no less than 1.
GGGACAGCATCTCTCTGTAG yielded a remaining target (mRNA or protein) (fraction of control) of no less than 1.
GGGAGAATGTTCTTGTAGCG: the remaining target (mRNA or protein) (fraction of control) was no less than 1.
In turn, GTGCAGGTTCTCATACACAT yielded a remaining target (mRNA or protein) (fraction of control) of 0.64.
TCAGAGTCGCAAACTTCTCC showed a remaining target (mRNA or protein) (fraction of control) of no less than 1.
Still for that read-out and setting: the value for TCAGCCGCATTCACCCTCGT was 0.54.
Same read-out and setting: the value for TCATGCTCCCCGCAGTTGGT was 0.4; that for TCTCATCAGGGCCTAGCAGC was 0.74; that for TGAGTCTGTCCATCGCGAAA was 0.63.
Turning to TGCCGGCGCTGCAGTGCACG, the remaining target (mRNA or protein) (fraction of control) was 0.85.
The same measure, in the same setting: to TGGTGCCGTCGCGGTCCTGC belongs 0.29.
Same read-out and setting: the value for TTCAGTGATCCCAGGGCTTT was 0.75.

The next series has as its target TERF1. As to conditions: ASO.
AAACACAATCAGTCTTCGCT showed a remaining target (mRNA or protein) (fraction of control) of 0.93.
Regarding AAGCTTTTACAAACACAATC, the remaining target (mRNA or protein) (fraction of control) was no less than 1.
Same read-out and setting: the value for AATCAGTCTTCGCTGTCTGA was no less than 1; that for ACAAACACAATCAGTCTTCG was no less than 1.
ACAATCAGTCTTCGCTGTCT: the remaining target (mRNA or protein) (fraction of control) was 0.57.
Sequence ACACAATCAGTCTTCGCTGT returned a remaining target (mRNA or protein) (fraction of control) of 0.64.

The target of another series is XIAP. Particulars: ASO.
AAAAGTCATCTTCTCTTGAA had a remaining target (mRNA or protein) (fraction of control) of 0.58.
On the same count and under the same terms, to AAACTGTTAAAAGTCATCTT belongs 0.81.
The sequence AAGTCATCTTCTCTTGAAAA showed a remaining target (mRNA or protein) (fraction of control) of 0.6.
AATCTGCAATTTGGGGATAC came in with a remaining target (mRNA or protein) (fraction of control) of 0.93.
Same read-out and setting: the value for ACAATACATGGCAGGGTTCC was 0.41; that for ACTGTTAAAAGTCATCTTCT was 0.87.
The sequence AGAAAATGGACAGAATCCTA gave a remaining target (mRNA or protein) (fraction of control) of 0.74.
The same measure, in the same setting: the value for AGCATGTTGTTCCCAAGGGT was 0.54; that for ATTCGTATAGCTTCTTGTAC was 0.61; that for ATTTATAGTTGCTCCCAGAT was 0.58.
Consider ATTTGTTAAGCCTATCTGAA, for which the remaining target (mRNA or protein) (fraction of control) worked out at 0.66.
For the sequence CAAAACTGTTAAAAGTCATC, the remaining target (mRNA or protein) (fraction of control) is no less than 1.
Still for that read-out and setting: to CAACTAAAACACTGCCATGT belongs 0.54; to CACTCCTCAAGTGAATGAGT, 0.52.
Sequence CATCTTCTCTTGAAAATAGG gave a remaining target (mRNA or protein) (fraction of control) of 0.9.
Still for that read-out and setting: to CCAGGCACGATCACAAGGTT belongs no less than 1.
On to CTATCATTAAATACGCTTTC, for which the remaining target (mRNA or protein) (fraction of control) is 0.99.
On the same count and under the same terms, to GAAATTCCTATCAGAACTCA belongs 0.76.
The same measure, in the same setting: the value for GATGTCTGCAGGTACACAAG was 0.56.
Same read-out and setting: to GCATGACAACTAAAGCACCG belongs 0.56; to GGTTAGGTTACTGATGTTAG, no less than 1.
In the case of GTCATCTTCTCTTGAAAATA, the remaining target (mRNA or protein) (fraction of control) amounted to 0.72.
TAATGGAATTCAATCCTGAT showed a remaining target (mRNA or protein) (fraction of control) of 0.83.
On the same count and under the same terms, the value for TAGAGTCCAGCACTTGCTAA was 0.4; that for TAGCAAAAGTTTTTAATCTA was 0.99; that for TAGGACTTGTCCACCTTTTC was 0.58.
TATGATGCTTCTTATTCTTA gave a remaining target (mRNA or protein) (fraction of control) of 0.65.
With TATTAACAACATACATACTT, the remaining target (mRNA or protein) (fraction of control) was no less than 1.
The same measure, in the same setting: to TCCACCAGCATGGAACAATT belongs 0.71; to TCCTTGTTAACTGAGTATAT, 0.69.
On the same count and under the same terms, the value for TCTGCATGTGTCTCAGATGG was 0.42; that for TCTTCTCTTGAAAATAGGAC was 0.96; that for TGACTAGATGTCCACAAGGA was 0.61.
On the same count and under the same terms, to TGCCTACTATAGAGTTAGAT belongs 0.6; to TGCTCTTCAGTACTAATCTC, 0.58.
Sequence TGTTAAAAGTCATCTTCTCT displayed a remaining target (mRNA or protein) (fraction of control) of 0.84.
Still for that read-out and setting: to TTAAAAGTCATCTTCTCTTG belongs no less than 1; to TTCAAAACTGTTAAAAGTCA, no less than 1.
In turn, TTGAAAATAGGACTTGTCCA displayed a remaining target (mRNA or protein) (fraction of control) of 0.93.
Still for that read-out and setting: to TTGTACTGACCATTCTGGAT belongs 0.47.
